Test results from patent publication US5968751A, “Method for detecting the presence of protein C antibody in a fluid sample” (The Scripps Research Institute, priority 1997, dated 1999).
No end group written: not given here.

What was measured:
Format in all cases: biochemical
APC [1] = biological target: T1, APC (Homo sapiens, UniProt P04070); experiment: Xa-1-stage coagulation assay, inhibition of APC anticoagulant activity; design: Protein C consists of a 155 amino acid residue light chain and a 262 amino acid residue heavy chain; from tissue; host or cells: human plasma factor IX concentrate
Procedure: For testing the inhibition of the synthetic peptides on APC activity described above, Xa-1-stage coagulation assays were also performed as described. See Seegers et al., Thrombosis Res., 13:233-243 (1978); Marlar et al., supra; and Walker et al., J. Biol. Chem., 265:1484-1489 (1990). PC heavy chain-derived peptides listed below in Table 6 and PC light chain-derived peptides listed below in Table 7 were prepared as described above and separately admixed for a final concentration of 2 mM with 120 nM APC in 100 μl of TBS-BSA at pH 7.4 to form separate peptide-APC admixtures. The resulting admixtures were maintained for ten minutes at 37° C. Separate aliquots of peptides maintained under the same conditions in the absence of APC served as controls for the inhibitory effect of synthetic peptides on APC anticoagulant activity. After the maintenance period, 100 μl of NHP and 100 μl of 200 μg/ml of rabbit brain cephalin (Sigma) were admixed into each peptide admixture and maintained for 200 seconds at 37° C. to form pre-coagulation admixtures. In some experiments, Factor VIII deficient plasma (George King Bio-Medical, Inc.) was used in the place of NHP to determine the effect of Factor VIII on the assay system. Coagulation was then initiated by the admixture of 100 μl of 0.62 nM human activated Factor X (Xa) (Enzyme Research Laboratories, Southbend, Ind.) in TBS-BSA containing 30 mM CaCl2 prewarmed to 37° C. to each of the pre-coagulation admixtures.
The time for clot formation was measured by an Electra 700 Automatic Coagulation Timer (Medical Laboratory Automation, Inc., Mount Vernon, N.Y.). Each peptide's effect was determined in duplicate. The results of the inhibition of APC anticoagulant activity by synthetic peptides as measured in Xa-1-stage coagulation assays are presented in Tables 6 and 7 below with the APTT assay results and are presented as the mean values obtained with APTT assays. Data for results with PC heavy chain-derived peptides are shown in Table 6 and data for results with PC light chain-derived peptides are shown in Table 7.
The results of inhibition of APC anticoagulant activity by PC light chain-derived peptides in a Xa-1 stage coagulation assay are shown in Table 7. The assay was performed in the presence of NHP. Peptides used in the assay were prepared as described in Example 1 and are listed in Table 7 by their corresponding residue positions in native PC protein (SEQ ID NO 1). For all peptides except PC142-155 used in the Xa-1 stage assays listed in Table 7, cysteine residues in the native PC amino acid residue sequence were substituted by either serine or glycine in the synthesized peptide. This was done to prevent multiple disulfide formation and subsequent potential polymerization among peptides with multiple cysteines. […]

thrombin = thrombin (Homo sapiens, UniProt P00734); experiment: thrombin amidolytic activity towards chromogenic substrates
APC [2] = biological target: T1, APC; experiment: amidolytic activity of APC towards S-2366; design: Protein C consists of a 155 amino acid residue light chain and a 262 amino acid residue heavy chain; from tissue; host or cells: human plasma factor IX concentrate; conditions: for Change in A405 /5 minutes: 10 nM APC, 250 μM PC311-325, 500 μM PC142-155, 30 minutes at 37° C., S-2366
Procedure: The amidolytic activity of APC toward the peptide substrate S-2366 was measured in the presence of various PC synthetic peptides derived from both the heavy and light chain, prepared in Example 1. For the assay, 100 μl of 10 nM APC, prepared in Example 2c2), were admixed with separate aliquots of 250 μM of PC311-325 and 500 μM Df PC142-155 prepared in TBS-BSA at pH 7.4 containing 0.02% NaN3 and 2 mM CaCl2 to form APC-peptide admixtures. After maintenance of the admixtures for 30 minutes at 37° C., 50 μl of 2.4 mM S-2366 in the same buffer were admixed to initiate the amidolytic reaction. The hydrolysis of the substrate was monitored by the change in absorbance at 405 nm at 37° C. over time using an EL312 Microplate Bio-Kinetics Reader (BIO-TEK Instruments, Inc. Vermont.). All data are mean values of duplicate measurements.
The amidolytic activity of APC toward the peptide substrate S-2366 was measured in the presence of anti-PC317-331 antibody. For the assay, 100 μl of 15 nM APC, prepared in Example 2c2), were admixed with separate aliquots of anti-PC317-331 antibody ranging in concentration from […] prepared in TBS-BSA at pH 7.4 containing 0.02% NaN3 and 2 mM CaCl2 to form APC-anti-PC317-331 antibody immunoreaction admixtures. After maintenance of the admixtures for 30 minutes at 37° C. to allow formation of immunoreaction products, 50 μl of 2.4 mM S-2366 in the same buffer was admixed to initiate the amidolytic reaction. The hydrolysis of the substrate was monitored by the change in absorbance at 405 nm over time using an EL312 Microplate Bio-Kinetics Reader (BIO-TEK Instruments, Inc. Vermont.).

T1 sequence (P04070 43-197 limits assumed): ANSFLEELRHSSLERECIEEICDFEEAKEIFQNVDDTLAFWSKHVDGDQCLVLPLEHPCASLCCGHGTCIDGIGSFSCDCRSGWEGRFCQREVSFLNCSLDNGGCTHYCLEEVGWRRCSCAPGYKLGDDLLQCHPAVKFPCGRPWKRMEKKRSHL
T1 sequence (P04070 212-450 limits assumed): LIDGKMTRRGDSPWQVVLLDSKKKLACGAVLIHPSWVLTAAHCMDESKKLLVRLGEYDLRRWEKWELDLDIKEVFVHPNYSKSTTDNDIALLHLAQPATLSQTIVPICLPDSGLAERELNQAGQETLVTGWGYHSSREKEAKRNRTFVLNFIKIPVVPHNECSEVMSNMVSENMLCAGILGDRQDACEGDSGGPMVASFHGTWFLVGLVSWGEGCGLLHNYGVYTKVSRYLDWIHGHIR

Molecule	IC50 (APC [1]; Xa-1-stage assay in NHP, read-out: 50% inhibition of APC anticoagulant activity)	inhibition at 500 µM (APC [1]; final peptide concentration 500 μM, NHP, 0 = no observable effect +10%)	effect on thrombin amidolytic activity towards chromogenic substrates (thrombin)	Change in A405 /5 minutes (APC [2])	effect on APC amidolytic activity towards S-2366 (APC [2]; up to 250 μM PC311-325 or 500 μM PC142-155, 30 min at 37° C.)	inhibition of APC anticoagulant activity (APC [1]; Xa-1-stage assay)
CSCC[C@H](NC(=O)[C@H](CCCNC(=N)N)NC(=O)[C@H](CCCCN)NC(=O)[C@H](Cc1c[nH]c2ccccc12)NC(=O)[C@@H]1CCCN1C(=O)[C@H](CCCNC(=N)N)NC(=O)CN)C(=O)N[C@@H](CCC(=O)O)C(=O)N[C@@H](CCCCN)C(=O)N[C@@H](CCCCN)C(=O)N[C@@H](CCCNC(=N)N)C(=O)N[C@@H](CO)C(=O)N[C@@H](Cc1c[nH]cn1)C(=O)N[C@@H](CC(C)C)C(=O)N[C@@H](CS)C(N)=O [PC142-155, Gly-Arg-Pro-Trp-Lys-Arg-Met-Glu-Lys-Lys-Arg-Ser-His-Leu]	25 µM	80%	–	–	–	–
KRNRTFVLNFIKIPV-NH2 [PC311-325, Lys-Arg-Asn-Arg-Thr-Phe-Val-Leu-Asn-Phe-Ile-Lys-Ile-Pro-Val]	–	–	no significant effect	0.342	no significant effect	–
MHKLREGKWRPKSR [Scrambled peptide, reference compound]	–	–	no significant effect	0.364	–	very little if any significant inhibition
